# Measurements from paper PMC4715021, “^177Lu-labelled macrocyclic bisphosphonates for targeting bone metastasis in cancer treatment” (EJNMMI Research, 2016).
# Several values for one entry are separate records, joined by “and”; a condition that tells them apart may be missing. Equal entries are not always repeated.
# Tests used:
# [1] = Ex vivo biodistribution of 177Lu-complexes in Wistar rats; conditions: for Biodistribution of radioactivity, Adipose tissue / Biodistribution of radioactivity, Adrenal gland / Biodistribution of radioactivity, Blood / Biodistribution of radioactivity, Brain / Biodistribution of radioactivity, Femur / Biodistribution of radioactivity, Harderian gland / Biodistribution of radioactivity, Heart / Biodistribution of radioactivity, Kidneys / Biodistribution of radioactivity, Liver / Biodistribution of radioactivity, Lung / Biodistribution of radioactivity, Muscle / Biodistribution of radioactivity, Pancreas / Biodistribution of radioactivity, Spleen / Biodistribution of radioactivity, Testes / Biodistribution of radioactivity, Thymus: i.v.
# Description: (§1) The experiments were realized corresponding to the German animal welfare regulations and institutional guidelines and with the permission of the local animal research committee at the Landesdirektion, Dresden. All experimental procedures are following the guidelines of the European Convention for the Protection of Vertebrate Animals used for Experimental and other Scientific Purposes (ETS No. 123). Male Wistar rats weighing 157.69 ± 17.10 g (mean ± SD, N = 35) were purchased from Unilever (HsdCpb:WU, Harlan Winkelmann, Borchen, Germany). Anesthetization was initiated and maintained by desflurane, and animals were put in the supine position and placed on a heating pad to maintain body temperature. A needle catheter was used for administration of the tracers in the tail vein. A second catheter was introduced into the right femoral artery for the extraction of blood samples for metabolite analysis, which was routinely done during SPECT/CT measurements.
# The male Wistar rats received a short-term anesthetization by desflurane inhalation. Mean activities of 2.36 ± 0.27 MBq/kg of the ^177Lu-labelled tracers in isotonic saline were injected in a volume of 0.5 mL in the tail vein, with the following specific details: [^177Lu]citrate: 2.56 ± 0.07 MBq/kg, 128.58 body weight (BW, g), n = 4 (g); [^177Lu]BPAMD: 2.33 ± 0.11 MBq/kg, 159.41 BW (g), n = 4 (g); [^177Lu]BPAPD: 2.58 ± 0.24 MBq/kg, 156.38 BW (g), n = 4 (g); [^177Lu]BPPED: 2.27 ± 0.25 MBq/kg, 153.43 BW (g), n = 4 (g); [^177Lu]NO2AP^BP: 2.52 ± 0.25 MBq/kg, 173.82 BW (g), n = 4 (g); [^177Lu]DOTA(M^BP)2: 1.80 ± 0.10 MBq/kg, 181.64 BW (g), n = 4 (g); [^177Lu]DO2A(P^BP)2: 2.46 ± 0.15 MBq/kg, 150.60 BW (g), n = 4 (g). The compounds [^177Lu]DOTA(M^BP)2, [^177Lu]BPPED, and [^177Lu]BPAMD were further chosen for a biodistribution study after 8 days p.i. A mean activity of 19.0 ± 2.5 MBq/kg was injected. Animals were sacrificed after 5 min, 60 min, and 8 days p.i. Organs of interest were excised rapidly and weighed, and the ^177Lu activity was determined with a Wallac WIZARD automatic gamma counter (PerkinElmer, Germany) and decay corrected. The distribution data are expressed in %ID or are normalized to the BW as standard uptake value (SUV), which was calculated with the formula: SUV = (activity per g tissue)/(injected activity) × BW. The skeleton weight was calculated using the following: skeleton weight = 9.66 + 0.0355 × BW, and the total activities associated with the skeleton were calculated by using the activity concentration in the femur and the total skeleton weight.
# [2] = Metabolite analysis and in vivo stability, arterial blood and urine samples; design: species or system Wistar rats
# Description: as §1
# Arterial blood plasma samples were taken during SPECT/CT examinations after 1, 3, 5, 10, 20, 30, 60, and 120 min. p.i., and the in vivo metabolism of [^177Lu]BPAMD, [^177Lu]BPAPD, [^177Lu]BPPED, [^177Lu]NO2AP^BP, [^177Lu]DOTA(M^BP)2, and [^177Lu]DO2A(P^BP)2 was analyzed. Plasma was separated by centrifugation (3 min, 11,000×g) followed by precipitation of the plasma proteins with ice-cold methanol (1.5 parts per 1 part plasma) and centrifugation (3 min, 11,000×g). The supernatants were analyzed by radio-TLC and HPLC using the abovementioned methods for quality control. Additionally, urine samples were treated in the same way prior radio-TLC and radio-HPLC analysis.
# [3] = 5 min p.i., mean of four animals
# [4] = 60 min p.i., mean of four animals
# [5] = 8 days p.i., mean for five animals
compound,measurement,setting,value
"O=C(O)CN1CCN(CC(=O)O)CCN(CC(=O)NC(P(=O)(O)O)P(=O)(O)O)CCN(CC(=O)O)CC1 [[^177Lu]BPAMD, metal not drawn]",Ratio Bone/Adipose tissue,[1]; 5 min p.i.,8.0
same,Ratio Bone/Adrenal gland,[1]; 5 min p.i.,8.4
same,Ratio Bone/Blood,[1]; 5 min p.i.,3.7
same,Ratio Bone/Brain,[1]; 5 min p.i.,83.9
same,Ratio Bone/Harderian gland,[1]; 5 min p.i.,9.3
same,Ratio Bone/Heart,[1]; 5 min p.i.,9.3
same,Ratio Bone/Kidneys,[1]; 5 min p.i.,0.7
same,Ratio Bone/Liver,[1]; 5 min p.i.,12.9
same,Ratio Bone/Lung,[1]; 5 min p.i.,5.5
same,Ratio Bone/Muscle,[1]; 5 min p.i.,17.7
same,Ratio Bone/Pancreas,[1]; 5 min p.i.,10.8
same,Ratio Bone/Spleen,[1]; 5 min p.i.,9.1
same,Ratio Bone/Testes,[1]; 5 min p.i.,13.4
same,Ratio Bone/Thymus,[1]; 5 min p.i.,11.6
same,"Biodistribution of radioactivity, Adipose tissue",[1]; [3],0.42 SUV
same,"Biodistribution of radioactivity, Adrenal gland",[1]; [3],0.40 SUV
same,"Biodistribution of radioactivity, Blood",[1]; [3],0.90 SUV
same,"Biodistribution of radioactivity, Brain",[1]; [3],0.04 SUV
same,"Biodistribution of radioactivity, Femur",[1]; [3],3.36 SUV
same,"Biodistribution of radioactivity, Harderian gland",[1]; [3],0.36 SUV
same,"Biodistribution of radioactivity, Heart",[1]; [3],0.36 SUV
same,"Biodistribution of radioactivity, Kidneys",[1]; [3],4.53 SUV
same,"Biodistribution of radioactivity, Liver",[1]; [3],0.26 SUV
same,"Biodistribution of radioactivity, Lung",[1]; [3],0.61 SUV
same,"Biodistribution of radioactivity, Muscle",[1]; [3],0.19 SUV
same,"Biodistribution of radioactivity, Pancreas",[1]; [3],0.31 SUV
same,"Biodistribution of radioactivity, Spleen",[1]; [3],0.37 SUV
same,"Biodistribution of radioactivity, Testes",[1]; [3],0.25 SUV
same,"Biodistribution of radioactivity, Thymus",[1]; [3],0.29 SUV
same,Ratio Bone/Adipose tissue,[1]; 60 min p.i.,134.5
same,Ratio Bone/Adrenal gland,[1]; 60 min p.i.,109.6
same,Ratio Bone/Blood,[1]; 60 min p.i.,135.6
same,Ratio Bone/Brain,[1]; 60 min p.i.,613.4
same,Ratio Bone/Harderian gland,[1]; 60 min p.i.,118.8
same,Ratio Bone/Heart,[1]; 60 min p.i.,210.1
same,Ratio Bone/Kidneys,[1]; 60 min p.i.,14.0
same,Ratio Bone/Liver,[1]; 60 min p.i.,127.5
same,Ratio Bone/Lung,[1]; 60 min p.i.,69.1
same,Ratio Bone/Muscle,[1]; 60 min p.i.,251.7
same,Ratio Bone/Pancreas,[1]; 60 min p.i.,136.4
same,Ratio Bone/Spleen,[1]; 60 min p.i.,68.2
same,Ratio Bone/Testes,[1]; 60 min p.i.,179.1
same,Ratio Bone/Thymus,[1]; 60 min p.i.,58.6
same,"Biodistribution of radioactivity, Adipose tissue",[1]; [4],0.04 SUV
same,"Biodistribution of radioactivity, Adrenal gland",[1]; [4],0.04 SUV
same,"Biodistribution of radioactivity, Blood",[1]; [4],0.04 ± 0.01 SUV and 0.04 SUV
same,"Biodistribution of radioactivity, Brain",[1]; [4],0.01 SUV
same,"Biodistribution of radioactivity, Femur",[1]; [4],4.84 ± 0.44 SUV and 4.84 SUV
same,"Biodistribution of radioactivity, Harderian gland",[1]; [4],0.04 SUV
same,"Biodistribution of radioactivity, Heart",[1]; [4],0.02 SUV
same,"Biodistribution of radioactivity, Kidneys",[1]; [4],0.35 SUV
same,"Biodistribution of radioactivity, Liver",[1]; [4],0.04 SUV
same,"Biodistribution of radioactivity, Lung",[1]; [4],0.07 SUV
same,"Biodistribution of radioactivity, Muscle",[1]; [4],0.02 SUV
same,"Biodistribution of radioactivity, Pancreas",[1]; [4],0.04 SUV
same,"Biodistribution of radioactivity, Spleen",[1]; [4],0.07 SUV
same,"Biodistribution of radioactivity, Testes",[1]; [4],0.03 SUV
same,"Biodistribution of radioactivity, Thymus",[1]; [4],0.08 SUV
same,Ratio Bone/Adipose tissue,[1]; 8 days p.i.,1158
same,Ratio Bone/Adrenal gland,[1]; 8 days p.i.,547
same,Ratio Bone/Blood,[1]; 8 days p.i.,6703
same,Ratio Bone/Brain,[1]; 8 days p.i.,1405
same,Ratio Bone/Harderian gland,[1]; 8 days p.i.,48
same,Ratio Bone/Heart,[1]; 8 days p.i.,885
same,Ratio Bone/Kidneys,[1]; 8 days p.i.,66
same,Ratio Bone/Liver,[1]; 8 days p.i.,203
same,Ratio Bone/Lung,[1]; 8 days p.i.,634
same,Ratio Bone/Muscle,[1]; 8 days p.i.,37
same,Ratio Bone/Pancreas,[1]; 8 days p.i.,851
same,Ratio Bone/Spleen,[1]; 8 days p.i.,257
same,Ratio Bone/Testes,[1]; 8 days p.i.,1136
same,Ratio Bone/Thymus,[1]; 8 days p.i.,787
same,"Biodistribution of radioactivity, Adipose tissue",[1]; [5],0.004 SUV
same,"Biodistribution of radioactivity, Adrenal gland",[1]; [5],0.009 SUV
same,"Biodistribution of radioactivity, Blood",[1]; [5],0.001 SUV
same,"Biodistribution of radioactivity, Brain",[1]; [5],0.004 SUV
same,"Biodistribution of radioactivity, Femur",[1]; [5],5.039 SUV
same,"Biodistribution of radioactivity, Harderian gland",[1]; [5],0.105 SUV
same,"Biodistribution of radioactivity, Heart",[1]; [5],0.006 SUV
same,"Biodistribution of radioactivity, Kidneys",[1]; [5],0.076 SUV
same,"Biodistribution of radioactivity, Liver",[1]; [5],0.025 SUV
same,"Biodistribution of radioactivity, Lung",[1]; [5],0.008 SUV
same,"Biodistribution of radioactivity, Muscle",[1]; [5],0.136 SUV
same,"Biodistribution of radioactivity, Pancreas",[1]; [5],0.006 SUV
same,"Biodistribution of radioactivity, Spleen",[1]; [5],0.020 SUV
same,"Biodistribution of radioactivity, Testes",[1]; [5],0.004 SUV
same,"Biodistribution of radioactivity, Thymus",[1]; [5],0.006 SUV
same,Total skeletal retention,"[1]; 8 days p.i., calculated from femur activity concentration and total skeleton weight",constant over 8 days
same,Total skeleton retention,"[1]; after 60 min, calculated from femur activity concentration and total skeleton weight",46.7 ± 5.3 %ID
same,Blood half-life of the slow component (t1/2(β)),"[2]; arterial blood, single intravenous injection",23.3 min
same,Metabolization in blood samples (radio-HPLC and TLC),[2]; within a period of 120 min,no evidence of any metabolization
